Values quoted from earlier work, collected in article PMC4567415 (Nuclear medicine and biology, 2015).
Values joined by “and” are separate entries in the source; they are usually repeats but may differ in a detail not shown here. Equal values may be shown once. Read-outs that look alike come from different tables or passages of the source.

Assays:
[1] = tested on: isolated rat cardiomyocytes
[2] = rats, 60 min
[3] = previously observed
[4] = previously described rhodamine B ester
[5] = Sprague-Dawley rats, 60 min p.i.

## Fc1ccc([P+](c2ccccc2)(c2ccccc2)c2ccccc2)cc1 [BFPET]
Sprague-Dawley rats, 30 min
  heart uptake: 1.51±0.04 % ID/g
Sprague-Dawley rats, 30 min p.i.
  liver concentration: 0.18±0.05 % ID/g
[5]
  heart uptake: 1.57±0.18 % ID/g
  liver concentration: 0.17±0.03 % ID/g

## CC(C)(C)n1ncc(OCc2ccc(COCCF)cc2)c(Cl)c1=O [BMS-747158-02]
30 min p.i.
  heart-to-blood ratio: 30.0
  heart-to-liver ratio: 2.7
  liver concentration: 1.27±0.10 % ID/g
120 min p.i.
  heart-to-liver ratio: 5.4
  liver concentration: 0.63±0.16 % ID/g
[5]
  heart concentration: 3.3±0.3 % ID/g
  heart-to-liver ratio: 3.7
Wistar rats, 60 min p.i.
  heart concentration: 2.06±0.83 % ID/g
  heart-to-liver ratio: 5.4

## CCN(CC)c1ccc2c(-c3ccccc3C(=O)OCCOCC[18F])c3ccc(N(CC)CC)cc3[o+]c2c1 [[^18F]2]
[1]; 1 min incubation
  initial activity internalized into rat cardiomyocytes: 3.9±0.8%
[1]; 60 min incubation
  initial activity internalized into rat cardiomyocytes: 43.1±7.7%
[2]
  Biodistribution of radioactivity, Blood: 0.25 ± 0.02 % ID/g
  Biodistribution of radioactivity, Bone: 0.77 ± 0.04 % ID/g
  Biodistribution of radioactivity, Gut: 1.69 ± 0.42 % ID/g
  Biodistribution of radioactivity, Heart: 2.5 % ID/g and 2.51 ± 0.16 % ID/g
  Biodistribution of radioactivity, Kidney: 9.28 ± 0.66 % ID/g
  Biodistribution of radioactivity, Liver: 0.49 ± 0.04 % ID/g
  Biodistribution of radioactivity, Lung: 2.06 ± 0.16 % ID/g
  Biodistribution of radioactivity, Muscle: 0.54 ± 0.07 % ID/g
  Biodistribution of radioactivity, Skin: 0.36 ± 0.04 % ID/g
  Biodistribution of radioactivity, Spleen: 3.53 ± 0.57 % ID/g
  Heart/blood tissue ratio: 10.0
  Heart/bone tissue ratio: 3.3
  Heart/liver tissue ratio: 5.1
  Heart/lung tissue ratio: 1.2
[3]
  stability in mouse serum: instability
[4]
  LogD: 1.90 ± 0.01

## CC/N=c1\cc2oc3cc(NCC)c(C)cc3c(-c3ccccc3C(=O)OCC)c-2cc1C [rhodamine 6G]
Pgp
  substrate of Pgp: substrate of Pgp
